For test [1], the system named is E. coli strains (e.g. BL21 or DH10beta). Put plainly: Growth of E. coli on LB medium with varying antibiotic concentrations (MIC). Type of test: cell-based. As to conditions: for Antibiotic concentration to which resistance is conferred: E. coli transformed with mutated GPR55 clones; for MIC: Escherichia coli.
A further test addresses T1, WT-GPR55 (Homo sapiens, UniProt Q9Y2T6).
T1 construct: expressed in transfected cells
Description: Genetic immunization of mice with protein boost, FACS analysis of sera on transfected cells. As to conditions: C57BL6 mice; 50 μg cDNA in NanoTaxi, 2 DNA boosts, 1 boost with 50 μg purified protein in IFA; polyclonal sera by FACS. Type of test: in vivo. The protocol: The genetic immunization work was performed using NanoTaxi® at In-Cell-Art (Nantes, France). NanoTaxi® is a DNA delivery system optimized for genetic immunization where the delivered genetic material is formulated with a mixture of different chemical families of lipids and polymers.
The cDNA corresponding to the EMP012 of the GPR55 receptor was cloned into a pCMV-based vector and cell surface expression was confirmed via transient transfection of HEK293T and HeLa cells prior to immunogen administration.
C57BL6 mice were immunized with 50 μg EMP012 cDNA construct formulated into the NanoTaxi® for the primary challenge, followed by 2 boosts of 50 μg using the same NanoTaxi®-based formulation at two-weekly intervals, followed by 1 boost using 50 μg purified EMP012 protein in IFA adjuvant. In some instances, boosting was carried out for the in-vivo affinity maturation by somatic hypermutation of the primary antibody response. The level of immune response was assessed at regular intervals by FACS analysis using Hela cells transfected with an unrelated GPCR (left panel) or WT-GPR55 (right panel) (FIG. 7).

[2] abbreviates: E. coli containing a plasmid encoding wild-type human GPR55.
[3] abbreviates: E. coli expressing certain constructs containing NTSR1 (rat, aa 43-424), read-out: Apparent MIC.

The values below come from patent US10845367B2, “Modified multispanning membrane polypeptides and methods of use thereof to screen therapeutic agents” (Abilita Bio, Inc., priority 2016, dated 2020).

Values after ≈ are worked out from the molar mass of the structure shown. Where two headings read alike, the source gives them in different places.

T1 sequence (Q9Y2T6 with tags, fused parts or gaps): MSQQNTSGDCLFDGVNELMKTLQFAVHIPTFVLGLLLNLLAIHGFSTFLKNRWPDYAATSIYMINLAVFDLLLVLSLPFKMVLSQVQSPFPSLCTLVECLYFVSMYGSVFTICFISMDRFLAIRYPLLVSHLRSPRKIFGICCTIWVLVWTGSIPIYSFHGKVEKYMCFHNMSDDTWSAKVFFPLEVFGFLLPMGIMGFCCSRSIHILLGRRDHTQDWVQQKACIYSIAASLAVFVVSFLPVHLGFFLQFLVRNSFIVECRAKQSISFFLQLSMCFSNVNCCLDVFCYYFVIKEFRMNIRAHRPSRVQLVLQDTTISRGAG

On to `CC1(C)S[C@@H]2[C@H](NC(=O)C(C(=O)O)c3ccccc3)C(=O)N2[C@H]1C(=O)O` (some centres unmarked) [carbenicillin], for which the “Antibiotic concentration to which resistance is conferred” value in test [1] was greater than 80 mg/L. The MIC was roughly 40 µg/mL (≈ 106 µM) in test [1] (setting [2]) and greater than 75 µg/mL in test [1] (setting [3]).
For the molecule `NC[C@H]1O[C@H](O[C@H]2[C@H](O)[C@@H](O[C@H]3O[C@H](CO)[C@@H](O)[C@H](N)[C@H]3O)[C@H](N)C[C@@H]2N)[C@H](O)[C@@H](O)[C@@H]1O` [kanamycin], the “Antibiotic concentration to which resistance is conferred” value in test [1] is on record as greater than 50 mg/L. Besides, the MIC is roughly 25 µg/mL (≈ 51.6 µM) in test [1] (setting [2]); greater than 50 µg/mL in test [1] (setting [3]); roughly 10 µg/mL (≈ 20.6 µM) in test [1] (untransformed cells, LB medium).

B1: EMP012: Modified GPR55 receptor (Enabled Membrane Protein), SEQ ID NO: 2, mutated relative to wild-type GPR55; used as cDNA and purified protein (protein, listed as Homo sapiens)
chain: MSQQNTSGNCLFDGMNELMKTLQFAVHIPTFVLGLLLNLLAIHGFSTFLKNRWPDYAATSIYMINLAVFDLLLVLSLPFKIVLSQVQSPFPSLCTLVECLYFVSMYGSVFTICFISMDRFLAIRYPLLVSHLRSPRKIFGICCTIWVLVWTGSIPIYSFHGKVEKYMCFHNMSDDTWSAKVFFPLEVFGFLLPMGIMGFCCSRSIHILLGRRDHTQDWVQQKACIYSIAASLAVFVVSFLPVHLGFFLQFLVRNSFIVECRAKQSISFFLQLSKCFSNVNCCLDVFCYYFVIKEFRMNIRAHRPSRVQLVLQDTTISRGAG
Take B1: the “Immune response against WT-GPR55” value with WT-GPR55 is “robust and specific immune response”.

Usually MIC stands for the lowest concentration that inhibits growth of the organism.
